Counter-ions that a name gives are not always drawn.
Tests used:
[1] = test system: YAP1 activity (YAP-TEAD interaction); assay: RT-qPCR of YAP1 and its targets CTGF and CYR61 in LIX1-expressing DF-1 cells; assay type: cell-based, chicken; conditions: low density, 1 μM for 20 hours
Experimental: (§1) The chicken DF-1 fibroblast cell line was cultured as previously described. Cell growth in DF-1 cultures was assessed using the Muse Count and Viability reagent following the manufacturer's specifications (Muse Cell Analyzer-Millipore). DF-1 cells were plated on plastic at 2000 cells/cm^2 to obtain low-density cultures and 6000 cells/cm^2 to obtain high-density cultures. Verteporfin (Sellekchem) was used applied to DF-1 cells for 20 hours at a final concentration of 1 μM.
Total RNA was extracted from stomachs or cell cultures with the HighPure RNA Isolation kit (Roche). Reverse transcription was performed using the Verso cDNA synthesis kit (Thermo Scientific) and RT-qPCR was performed using LightCycler technology (Roche Diagnostics). PCR primers were designed using the LightCycler Probe Design 2.0 software. Each sample was analysed in three independent experiments done in triplicate. Expression levels were determined with the LightCycler analysis software (version 3.5) relative to standard curves. Data were represented as the mean level of gene expression relative to the expression of the reference genes UBIQUITIN or GAPDH. Relative mRNA expression was calculated using the 2^−ΔΔCT method.
DF-1 chicken fibroblasts were infected with replication-competent RCAS retroviruses and cultured for 5 days to ensure homogeneous expression. […]

[2] = test system: DF-1 fibroblast cell line; assay: Cell proliferation of LIX1-expressing DF-1 cultures (Muse Count and Viability); assay type: cell-based, chicken; conditions: LIX1-expressing DF-1 cells, low density, 1 μM for 20 hours
Experimental: as §1
(§2) DF-1 chicken fibroblasts were infected with replication-competent RCAS retroviruses and cultured for 5 days to ensure homogeneous expression. […] This greater expression was associated with higher transcript levels of YAP1 pro-proliferation target genes CTGF and CYR61 and an increase in cell proliferation. […] After 3 days in culture, LIX1-expressing cells had grown faster than control cells. However, although YAP1 expression in LIX1-expressing cells remained higher than in controls, the levels of CTGF and CYR61 transcripts were similar to control levels.

[3] = test system: DF-1 fibroblast cell line; assay: Analysis of cell death in DF-1 cultures; assay type: cell-based, chicken; conditions: 1 μM for 20 hours
Experimental: as §1, §2

[4] = test system: LIX1 transcript levels in GIST882 cells; assay: LIX1 expression by RT-qPCR in GIST882 cells; assay type: cell-based, human; conditions: 1 μM, 6 h, 24 h and 48 h, vs DMSO control
Experimental: FIG. 1: LIX1 is expressed in GISTs. (A) LIX1 mRNA expression and regulation in the GIST882 cell line. (a) Semi-quantitative RT-PCR analysis of LIX1 transcript level in 131N1 (astrocytoma cells), PC3 (prostate cancer cells), HeLa, and GIST882 cells. Loading was verified by glyceraldehyde-3-phosphate dehydrogenase (GAPDH) expression. (b) Analysis of LIX1 expression by RT-qPCR in GIST882 cells upon incubation with DMSO alone (control) or with 7.5 μM of Akti (inhibitor of AKT) for 6 h, 24 h and 48 h. Normalized expression levels were converted to fold changes. *P<0.05; **P<0.01. (c) Analysis of LIX1 expression by RT-qPCR in GIST882 cells upon incubation with DMSO alone (control) or with 1 μM of imatinib mesylate (KIT inhibitor) for 6 h, 24 h and 48 h. […] (b) Relapse-free survival from initial imatinib mesylate treatment in group 1 presenting low level of LIX1 compared with group 2 presenting high level of LIX1 individuals with GIST, assessed in a univariate analysis using the Kaplan-Meier method. […]
Total RNA was extracted from stomachs or cell cultures with the HighPure RNA Isolation kit (Roche). […] Each sample was analysed in three independent experiments done in triplicate. Expression levels were determined with the LightCycler analysis software (version 3.5) relative to standard curves. […] Relative mRNA expression was calculated using the 2^−ΔΔCT method. […]

[5] = test system: LIX1 expression in GIST-T1 cells; assay: LIX1 expression by RT-qPCR in GIST-T1 cells; assay type: cell-based, human; conditions: 0.5 μM, 6 h, 24 h and 48 h, vs DMSO control
Experimental: Analysis of LIX1 expression by RT-qPCR in GIST-T1 cells upon incubation with DMSO alone (control) or with 0.5 μM of imatinib mesylate (KIT inhibitor) for 6 h, 24 h and 48 h. Normalized expression levels were converted to fold changes. **P<0.01; ***P<0.001.
Resistance to tyrosine kinase inhibitors such as imatinib is increasing in GISTs and complete remissions are rare, highlighting the necessity to identify additional therapeutic targets. The inventors investigated the role of LIX1 in secondary imatinib-resistant GISTs using GIST-T1 cells, a primary gastric GIST cell line sensitive to Imatinib treatment that harbors hetereygous deletion in KIT gene with constitutive KIT signaling pathway.

GIST = conditions: after 5 years; increased from 30% after 1 year; cited from earlier work

Molecule: verteporfin
- YAP1 expression [1]: upregulation of YAP1 was still observed
- levels of CTGF and CYR61 transcripts [1]: comparable with control cells
- rates of proliferation [2]: comparable with control cells
- cytotoxic effect (cell death) [3]: not due to a cytotoxic effect

Molecule: Cc1ccc(NC(=O)c2ccc(CN3CCN(C)CC3)cc2)cc1Nc1nccc(-c2cccnc2)n1 [imatinib mesylate]
- LIX1 transcript levels [4]: strong and efficient inhibition of LIX1 transcript levels
- LIX1 expression [5]: upregulated
- GIST patient survival (GIST): 50%

— patent publication US11300568B2, “Methods for the diagnosis and treatment of gastrointestinal stromal tumors” (INSERM (INSTITUT NATIONAL DE LA SANTE ET DE LA RECHERCHE …, priority 2016, dated 2022)
